Assay results taken from ChEMBL document CHEMBL4610060, “Orally bioavailable amine-linked macrocyclic inhibitors of factor XIa” (Bioorg Med Chem Lett, 2020).

Experiments:
Coagulation factor XI = Coagulation factor XI (Homo sapiens, UniProt P03951); test: Inhibition of recombinant human activated coagulation factor XI using pyro-Glu-Pro-Arg-pNA as substrate by spectrophotometry
[1] = Clearance in Sprague-Dawley rat at 0.52 mg/kg, iv or 1.04 mg/kg, po measured upto 24 hrs by LC-MS/MS analysis; type: ADME, organism-based; details: in vivo
Plasma = test: Anticoagulant activity in human plasma assessed as EC1.5 of activated partial thromboplastin time by coagulometric analysis; type: functional
[2] = AUC in Sprague-Dawley rat at 1.04 mg/kg, po measured upto 24 hrs by LC-MS/MS analysis; type: ADME, organism-based; parameters: time < 24 hr, dose 1.04 mg/kg, route oral; details: in vivo
[3] = Permeability across apical to basolateral side in human Caco2 cells; type: ADME, cell-based; details: Caco-2, read-out: permeability
[4] = Oral bioavailability in Sprague-Dawley rat at 1.04 mg/kg measured upto 24 hrs by LC-MS/MS analysis; type: ADME, organism-based; details: in vivo
[5] = Half life in Sprague-Dawley rat at 0.52 mg/kg, iv or 1.04 mg/kg, po measured upto 24 hrs by LC-MS/MS analysis; type: ADME, organism-based; details: in vivo
[6] = Metabolic stability in human liver microsomes assessed as half life; type: ADME, Microsome
[7] = Volume of distribution at steady state in Sprague-Dawley rat at 0.52 mg/kg, iv or 1.04 mg/kg, po measured upto 24 hrs by LC-MS/MS analysis; type: ADME, organism-based; details: in vivo, read-out: Vdss
[8] = Metabolic stability in rat liver microsomes assessed as half life; type: ADME, Microsome
[9] = Permeability across basolateral to apical side in human Caco2 cells; type: ADME, cell-based; details: Caco-2, read-out: permeability

Chain of Coagulation factor XI (P03951 19-387 limits assumed): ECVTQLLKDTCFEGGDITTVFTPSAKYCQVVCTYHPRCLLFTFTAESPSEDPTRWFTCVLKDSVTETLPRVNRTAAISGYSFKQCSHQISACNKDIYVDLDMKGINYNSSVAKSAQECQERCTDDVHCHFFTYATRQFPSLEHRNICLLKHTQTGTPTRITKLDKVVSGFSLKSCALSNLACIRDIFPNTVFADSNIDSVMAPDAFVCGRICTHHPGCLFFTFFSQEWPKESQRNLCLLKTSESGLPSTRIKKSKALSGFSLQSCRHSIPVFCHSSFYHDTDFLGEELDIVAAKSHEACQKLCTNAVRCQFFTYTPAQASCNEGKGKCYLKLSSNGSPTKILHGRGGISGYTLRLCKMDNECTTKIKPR
Chain of Coagulation factor XI (P03951 388-625 limits assumed): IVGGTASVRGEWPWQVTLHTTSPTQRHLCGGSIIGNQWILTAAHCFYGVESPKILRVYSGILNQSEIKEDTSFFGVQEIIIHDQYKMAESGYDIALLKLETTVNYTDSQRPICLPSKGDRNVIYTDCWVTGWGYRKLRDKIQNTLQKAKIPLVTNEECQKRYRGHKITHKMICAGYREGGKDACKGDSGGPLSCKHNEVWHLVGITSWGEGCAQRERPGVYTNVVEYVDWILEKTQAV

- Ki (Coagulation factor XI): 3.4 nM
- clearance [1]: 5.2 mL/min/kg
- AUC at 24 h [2]: 0.889 µM·h
- Papp A→B [3]: < 1.5 ×10⁻⁶ cm/s
- bioavailability [4]: 23%
- half-life [5]: 1.2 h
- half-life [6]: 1.85 h
- Vd [7]: 0.53 L/kg
- half-life [8]: 1.45 h
- Papp B→A [9]: 21.3 ×10⁻⁶ cm/s
Structure (SMILES): COC(=O)Nc1ccc2c(c1)N[C@@H](C(=O)OC)CCCC[C@H](NC(=O)/C=C/c1cc(Cl)ccc1-n1cnnn1)c1cc-2ccn1
- EC1.5 (Plasma): 3.4 µM
